Reference: patent US7507739B2, “6-[(substituted)phenyl]triazolopyrimidines as anticancer agents” (Wyeth, priority 2003, dated 2009)
Marks after values point to notes of the source that are not given here.

Assays:
[1] = tested on: KB-8-5 cells; assay: MTS cytotoxicity test with KB-8-5 cells (moderate P-glycoprotein); format: cell-based, human; settings: for IC50: Homo sapiens, KB-8-5 cells, MTS, read-out: IC50 KB 8.5; for Ratio 8.5/KB: IC50 on KB 8.5 cells/IC50 on KB cells
Excerpt: (§1) Human cancer cell lines, unless otherwise noted, are obtained from the American Type Culture Collection (Rockville, Md.). The following drug-sensitive parental cell lines, and their derived drug-resistant counterparts, are obtained from the originators as listed: (a) S1 (parental line from a subclone of human colon carcinoma line LS174T) and derived S1-M1-3.2 (herein called S1-M1) which expresses the MXR drug transporter protein, are provided by Dr. L. Greenberger, Wyeth Research (Rabindran, S. K., He, H., Singh, M., Brown, E., Collins, K. I., Annable, T., and Greenberger, L. M. Reversal of a novel multidrug resistance mechanism in human colon carcinoma cells by fumitremorgin C. Cancer Res., 58:5850-5858,1998); (b) parental HL-60 human promyelocytic leukemia line and derived HL-60/ADR, which expresses the MRP1 drug transporter protein, are provided by Dr. M. Center, University of Kansas (McGrath, T., and Center, M. S. Adriamycin resistance in HL60 cells in the absence of detectable P-glycoprotein. Biochem. Biophys. […] J. Biol. Chem., 261: 7762-7770,1986) via Dr. L. Greenberger, Wyeth Research.
(§2) The assay, which is sold in kit form by Promega (Madison, Wis.; CellTiter 96 AQueous Non-Radioactive Cell Proliferation Assay), is based on the conversion by viable cells, but not by dead cells, of the tetrazolium salt, MTS (3-(4,5-dimethylthiazol-2-yl)-5-(3-carboxymethoxyphenyl)-2-(4-sulphophenyl)-2H-tetrazolium, inner salt), into a water-soluble colored formazan which is detected by spectrophotometry. Compounds are tested at nine concentrations, in order to determine IC50 values. For the test procedure, cells are harvested by trypsinization (or, in the case of non-adherent cells, by simple resuspension), washed, counted and distributed to wells of 96-well flat-bottom microtiter plates at 1000 cells per well in 200 μL of medium. In addition, one row of wells on a separate plate received cells as above (“time 0” plate). All plates are incubated at 37° in humidified 5% CO2 in air for about 24 hr.
(§3) On day 2, compounds for test are diluted and added to wells. Compounds are dissolved in DMSO at 10 mg/mL. For each compound, nine serial 2-fold dilutions are prepared in DMSO. Ten μL of each dilution in DMSO is transferred to 100 μL of medium, mixed well, and then 5 μL of this dilution is transferred in quadruplicate to wells containing cells. […] Plates are returned to the incubator for three days. At the time of drug addition to the experimental plates, the MTS assay is run on the “time 0” plate. This produced the “time 0 MTS value” which is related to the number of viable cells per well at the time of drug addition.
(§4) After three days of culture with test compounds (day 5 overall), the MTS assay is done on all wells of the experimental plates. The absorbance values of the quadruplicate sample wells are averaged and divided by the average of the “time 0” values. […] The nine values for each compound are plotted against concentration, and the concentration that produced a relative color yield half way between the maximum and minimum is taken as the IC50 value.
(§5) The KB lines express different amounts of the P-glycoprotein (MDR1) membrane pump which produces resistance to the action of many cytotoxic compounds, including paclitaxel and vincristine. The parental KB line expresses no P-glycoprotein, KB-8-5 expresses moderate levels of the protein, and KB-V1 expresses very high levels.

[2] = tested on: HL-60/ADR cells; assay: MTS cytotoxicity test with HL-60/ADR cells (MRP1); format: cell-based, human; settings: for Ratio: IC50 on HL-60/ADR cells/IC50 on HL-60 cells
Excerpt: as §1, §2, §3, §4
(§6) HL-60/ADR cells overexpress the multidrug resistance protein MRP1 which mediates resistance to some chemotherapeutics (Gottesman, M. M., Fojo, T., and Bates, S. E. Multidrug resistance in cancer: role of ATP-dependent transporters. Nature Rev. Cancer, 2: 48-58, 2002). The IC50 values of representative examples of this invention, as well as reference compounds, on HL-60/ADR are compared to values on the sensitive parental HL-60 line.

[3] = tested on: S1-M1 cells; assay: MTS cytotoxicity test with S1-M1 cells (MXR); format: cell-based, human; settings: for Ratio: IC50 on S1-M1 cells/IC50 on S1 cells
Excerpt: as §1, §2, §3, §4
as §6, with “S1-M1” for “HL-60/ADR”, “MXR transporter” for “multidrug resistance protein MRP1”, “Miltidrug” for “Multidrug”, “S1” for “HL-60”

[4] = tested on: HL-60 cells; assay: MTS cytotoxicity test with HL-60 cells; format: cell-based; settings: Homo sapiens; HL-60 cells, MTS; read-out: IC50 HL-60
Excerpt: as §1, §2, §3, §4, §6

[5] = tested on: KB-V1 cells; assay: MTS cytotoxicity test with KB-V1 cells (very high P-glycoprotein); format: cell-based, human; settings: for IC50: Homo sapiens, KB-V1 cells, MTS; for Ratio VI/KB: IC50 on KB VI cells/IC50 on KB cells
Excerpt: as §1, §2, §3, §4, §5

[6] = tested on: S1 cells; assay: MTS cytotoxicity test with S1 cells; format: cell-based; settings: Homo sapiens
Excerpt: as §1, §2, §3, §4
as §6, with “S1-M1” for “HL-60/ADR”, “MXR transporter” for “multidrug resistance protein MRP1”, “Miltidrug” for “Multidrug”, “S1” for “HL-60”

[7] = tested on: KB cells; assay: MTS cytotoxicity test with KB cells; format: cell-based; settings: Homo sapiens; KB cells, MTS; read-out: IC50 KB
Excerpt: as §1, §2, §3, §4, §5

[8] = tested on: MAP-rich tubulin; assay: Tubulin polymerization test with MAP-rich tubulin; format: biochemical, bovine; settings: 0.3 μM compound, 20 min, fold enhancement over control
Description: Medium is RPMI-1640 with L-glutamine, supplemented with 10% heat-inactivated fetal calf serum, 100 units/ml penicillin, and 100 μg/ml streptomycin (Gibco, Grand Island, N.Y.). Microtubule-associated protein (MAP)-rich tubulin, containing about 70% tubulin and 30% MAPs (#ML113), and highly purified tubulin (>99% pure, #TL238), both from bovine brain, are obtained from Cytoskeleton, Inc., Denver, Colo. PEM buffer (80 mM piperazine-N,N′-bis[2-ethanesulfonic acid], pH 6.9, 1 mM ethylene glycol-bis(β-aminoethyl ether)-N,N,N′,N′-tetraacetic acid, 1 mM magnesium chloride) and guanosine 5′-triphosphate (GTP) are also obtained from Cytoskeleton. [3H]paclitaxel, specific activity 14.7 Ci/mmol, is purchased from Moravek Biochemicals (Brea, Calif.). [^3H]vinblastine, specific activity 9.60 Ci/mmol and MicroSpin G-50 columns are obtained from Amersham Biosciences (Piscataway, N.J.). […] Other reagents are obtained from Sigma (St. Louis, Mo.).
Two variations of this procedure are done, one using MAP-rich tubulin and one using pure tubulin.
MAP-rich tubulin is dissolved in ice-cold PEM buffer containing 1 mM GTP (GPEM buffer) at a concentration of 1.3 mg/mL. The solution is centrifuged at top speed in an Eppendorf model 5415C microcentrifuge (Brinkmann Instruments, Westbury, N.Y.) for 10 min at […] immediately before use. The tubulin solution is added to wells of a ½-area 96-well plate (Costar No. 3696, Corning, Inc., Corning, N.Y.) already containing the compounds of interest. Each compound is tested in duplicate at a final concentration of 0.3 μM in a volume of 110 μL per well. The final DMSO concentration in all wells is 0.3%. Control reactions, which received compound solvent only, are done in quadruplicate. The plate is put in a SpectraMax Plus plate reader (Molecular Devices Corp. Sunnyvale, Calif.) thermostated at 24° and the absorbance of each well at 340 nm, a measure of the appearance of turbidity due to tubulin polymer formation, is determined every minute for 60 minutes. The absorbance at time 0 for each well is subtracted from each of the subsequent absorbance readings for that well, and then the duplicates are averaged.
In this assay, control reactions with MAP-rich tubulin show an S-shaped absorbance profile characterized by three phases: first, a lag phase during which no change in absorbance occurs; second, a polymerization phase in which absorbance increases; and third, a plateau phase in which absorbance has reached a maximum and little or no further change occurs. Polymerization enhancers such as paclitaxel and docetaxel shorten or eliminate the lag phase, increase the rate of the polymerization phase, and often increase the height of the plateau. […] The compounds of this invention have a taxane-like effect on the polymerization reaction. This has been expressed quantitatively in Table 5 by dividing the mean A340 of each sample at 20 min by the mean A340 of the control at 20 min to give a fold enhancement over control. […] Examples of this invention have factors ranging up to 8.1, with the majority in the 5 to 6-fold range.

[9] = tested on: DLD1 Human Colon Carcinoma; assay: Human tumor xenograft test, DLD1; format: in vivo; settings: DLD1, 20 mg/kg intravenously on days 1, 5, 9, and 13
Description: (§7) The ability of compounds of this invention to inhibit tumor growth in animals is studied in the athymic mouse xenograft standard pharmacological test. Female nu/nu mice in an outbred albino background are obtained from Charles River Laboratories (Wilmington, Mass.). Animals are injected subcutaneously on the flank with the desired tumor cell suspension. Several days later, mice with tumors of approximately 150 mm^3 are selected from those injected (staged) and randomly distributed into groups of 5-10. The day of staging is called day 0. Compounds of the invention, usually formulated in saline (exceptions are noted in tables), are administered to animals by intravenous injection or oral gavage on various schedules starting on day 0 or 1, as noted in the tables. The control group in each experiment is dosed with vehicle on the same schedule. Tumor size is measured every 3-7 days with calipers in two orthogonal dimensions, and tumor volume is calculated from the formula volume=[(length×width^2)/2].
(§8) Tumor/Control (T/C) is obtained by dividing the mean tumor volume of the treated group by the mean tumor volume of the control group on each measurement day. A treatment dose is defined as active if it produced a statistically significant T/C of 0.50 or less. A p value≦0.05, determined by one-side Student's t-test, is required for statistical significance. A treatment dose is defined as toxic if more than 10% of the animals died from a compound-related toxicity.

[10] = tested on: COLO 205 cells; assay: MTS cytotoxicity test with COLO 205 cells; format: cell-based, human; settings: Homo sapiens, COLO 205, 72 h, 3 days
Method in brief: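 COLO 205 human colon carcinoma cells, 1000 per well, exposed 3 days at 37° C to nine 2-fold dilutions, typical final top concentration 5 μM. MTS absorbance normalized to time-0 plate; IC50 is concentration giving colour yield midway between untreated and fully killed controls.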

[11] = tested on: U87-MG Human Glioblastoma; assay: Human tumor xenograft test, U87-MG; format: in vivo, athymic mice
Description: as §7, §8

[12] = U87-MG, 2.5 mg/kg PO, day 0, vehicle Klucel
[13] = U87-MG, 5 mg/kg PO, day 0, vehicle Klucel
[14] = U87-MG, 10 mg/kg PO, day 0, vehicle Klucel
[15] = U87-MG, 20 mg/kg PO, day 0, vehicle Klucel
[16] = U87-MG, 30 mg/kg PO, day 0, vehicle Klucel
[17] = U87-MG, 20 mg/kg PO, days 1, 5, 9

## CC[C@@]1(O)C(=O)OCc2c1cc1n(c2=O)Cc2cc3ccccc3nc2-1 [Camptothecin, reference compound]
[1]
  IC50: 33 nM
  Ratio 8.5/KB: 1.4
[2]; Homo sapiens, HL60/ADR, HL-60/ADR cells, MTS, read-out: IC50 HL-60/ADR
  IC50: 17 nM
[2]
  Ratio: 1.4
[3]; Homo sapiens, S1-M1 cells, MTS, read-out: IC50 S1-M1
  IC50: 17 nM
[3]
  Ratio: 1.9
[4]
  IC50: 12 nM
[5]
  IC50: 39 nM
  Ratio VI/KB: 1.6
[6]
  IC50: 8.9 nM
[7]
  IC50: 24 nM

## COc1cccc2c1C(=O)c1c(O)c3c(c(O)c1C2=O)C[C@@](O)(C(=O)CO)C[C@@H]3O[C@H]1C[C@H](N)[C@H](O)[C@H](C)O1 [Doxorubicin, reference compound]
[1]
  IC50: 70 nM
  Ratio 8.5/KB: 3.0
[2]
  Ratio: 93
[3]
  Ratio: 74
[4]
  IC50: 23 nM
[5]
  IC50: > 3000 nM
  Ratio VI/KB: >130
[5]; listed as doxorubicin
  Ratio VI/KB: > 130
[6]
  IC50: 34 nM
[7]
  IC50: 23 nM

## CNCCCOc1cc(F)c(-c2c(Cl)nc3ncnn3c2N[C@@H](C)C(F)(F)F)c(F)c1 [Example 2, 5-Chloro-6-{2,6-difluoro-4-[3-(methylamino)propoxy]phenyl}-N-[(1S)-2,2,2-trifluoro-1-methylethyl][1,2,4]triazolo[1,5-a]pyrimidin-7-amine]
[8]
  A340 Compound/A340 Control: 5.8
[9]
  tumor growth inhibition (activity call): active
[10]
  IC50: 32 nM
[11]; [12]
  T/C on day 0: 1.00
  T/C on day 4: 0.84
  T/C on day 8: 0.82
  T/C on day 11: 0.74*
  T/C on day 14: 0.74*
[11]; [13]
  T/C on day 0: 1.02
  T/C on day 4: 0.71*
  T/C on day 8: 0.75*
  T/C on day 11: 0.65**
  T/C on day 14: 0.68**
[11]; [14]
  T/C on day 0: 1.00
  T/C on day 4: 0.60**
  T/C on day 8: 0.51**
  T/C on day 11: 0.40**
  T/C on day 14: 0.41**
[11]; [15]
  T/C on day 0: 0.97
  T/C on day 4: 0.59**
  T/C on day 8: 0.38**
  T/C on day 11: 0.28**
  T/C on day 14: 0.30**
[11]; [16]
  T/C on day 0: 0.95
  T/C on day 4: 0.41**
  T/C on day 8: 0.24**
  T/C on day 11: 0.19**
  T/C on day 14: 0.23**

## C[C@H](Nc1c(-c2c(F)cc(OCCCN3CCCC3)cc2F)c(Cl)nc2ncnn12)C(F)(F)F [Example 9, 5-Chloro-6-[2,6-difluoro-4-(3-pyrrolidin-1-ylpropoxy)phenyl]-N-[(1S)-2,2,2-trifluoro-1-methylethyl][1,2,4]triazolo[1,5-a]pyrimidin-7-amine]
[8]
  A340 Compound/A340 Control: 5.8
[10]
  IC50: 44 nM
[11]; [17]
  T/C on day 0: 1.04
  T/C on day 3: 0.93
  T/C on day 7: 0.70
  T/C on day 10: 0.50**
  T/C on day 13: 0.34**
  T/C on day 17: 0.45**
[11]; U-87 MG, oral dosing, 20 mg/kg
  tumor growth inhibition (activity call): active
